The text below walks through data of patent publication US9663464B2, “Carbazole derivatives acting on 5-HT7 receptor” (KOREA INSTITUTE OF SCIENCE AND TECHNOLOGY, priority 2015, dated 2017).

As a reminder, the Ki is the dissociation constant of the complex between target and ligand, obtained from inhibition or displacement. In general, inhibition refers to the drop in the measured response relative to a control, in per cent.

Each structure is given as a SMILES string. Structures can show the parent of a compound that is named as a salt.

One experiment deals with T1, 5-HT2C (Homo sapiens, UniProt P28335).
T1 sequence (P28335 33-458): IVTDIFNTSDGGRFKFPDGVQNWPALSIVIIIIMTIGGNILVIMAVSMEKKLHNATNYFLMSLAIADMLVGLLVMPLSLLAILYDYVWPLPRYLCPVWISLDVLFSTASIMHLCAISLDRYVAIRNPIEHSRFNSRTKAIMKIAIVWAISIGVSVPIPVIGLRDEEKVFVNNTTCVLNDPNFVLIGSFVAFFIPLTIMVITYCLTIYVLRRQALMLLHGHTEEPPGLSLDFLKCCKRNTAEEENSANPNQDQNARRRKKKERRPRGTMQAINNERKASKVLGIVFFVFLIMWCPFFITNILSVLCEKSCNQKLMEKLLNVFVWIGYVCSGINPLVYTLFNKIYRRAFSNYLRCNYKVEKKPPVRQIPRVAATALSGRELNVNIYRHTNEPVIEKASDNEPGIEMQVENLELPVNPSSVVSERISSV
Nature of the experiment: 5-HT2C receptor inhibition/binding (Tables 1-3).

For experiment [1], the target named is T2, human gene recombinant 5-HT7 receptor expressed in CHO cells (Homo sapiens, UniProt P34969).
T2 construct: expressed in transfected cells; host or cells: CHO cells (membrane preparation)
T2 sequence (P34969 whole entry): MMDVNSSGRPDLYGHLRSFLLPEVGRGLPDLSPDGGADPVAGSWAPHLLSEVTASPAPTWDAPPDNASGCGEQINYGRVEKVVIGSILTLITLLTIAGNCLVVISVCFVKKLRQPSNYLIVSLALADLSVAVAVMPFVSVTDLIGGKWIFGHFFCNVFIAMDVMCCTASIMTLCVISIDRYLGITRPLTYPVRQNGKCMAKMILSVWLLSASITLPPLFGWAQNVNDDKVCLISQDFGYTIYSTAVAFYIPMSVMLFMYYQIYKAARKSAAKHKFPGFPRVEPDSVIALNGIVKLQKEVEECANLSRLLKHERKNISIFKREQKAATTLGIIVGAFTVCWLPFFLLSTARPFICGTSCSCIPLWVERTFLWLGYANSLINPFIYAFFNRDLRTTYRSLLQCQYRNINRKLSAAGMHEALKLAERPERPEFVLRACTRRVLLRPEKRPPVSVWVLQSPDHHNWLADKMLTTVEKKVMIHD
Briefly: Binding affinity for the 5-HT7 serotonin receptor ([3H]LSD radioligand). On the procedure:
In this example, the human gene recombinant 5-HT7 receptor expressed in CHO cells was used. 1 nM [^3H]LSD, 5-HT7 receptor membrane (15 μg/well), a test drug, 10 mM MgCl2, 50 mM Tris-HCl buffer (pH 7.4) containing 0.1 mM EDTA, etc. were added to a vessel until the final volume reached 0.25 ml. The test drug was used at various concentrations. The mixture was cultured at 25° C. for 90 min. The culture was rapidly filtered through a Whatman GF/C glass fiber filter, which had been previously wetted with 0.3% polyethyleneimine using a Brandel harvester, to quench the reaction. The reaction mixture was washed with cold 50 mM Tris-HCl buffer. The filter was covered with MeltiLex, sealed in a sample bag, and dried in an oven. Counting was performed using MicroBeta (Wallac) and nonspecific binding was measured in the presence of […]. The K value of the test drug was obtained from nonlinear regression analysis (GraphPad Prism Program, San Diego, USA) of isotherms obtained by repeatedly performing the experiment on the drug at 10-11 stage concentrations in two test tubes (each twice).
The % inhibition values of the inventive compounds having different Y structures at a concentration of 10 μM against the 5-HT7 serotonin receptor were measured. Further, the binding affinity (Ki) values of the inventive compounds having different Y structures at a concentration of 10 μM for the 5-HT7 serotonin receptor were measured.

For another experiment, the system named is Rats. Nature of the experiment: Antagonism against migraine: leakage of fluorescent protein (FITC-BSA) from meningeal vessels. It counts as in vivo. The following applies: for protein leakage vs reference value: 5 mg/kg to 20 mg/kg. As for the experimental part: It is known that inflammatory proteins leaked from meningeal vessels by 5-HT are implicated in causing migraine. The amount of the proteins leaked in the presence of the compound of Example 2.10 was measured and the preventive effect of the compound on migraine was assessed by a partial modification of the method described in the literature [Rachel A. Spokes, Vicki C. Middlefell, European Journal of Pharmacology (1995) 281, 75-79]. SB-269970, which is known as a 5-HT7 receptor antagonizing compound (J. Med. Chem. (2000) 43, 342-345), was used as a comparative compound. A negative control free of […] was prepared. The fluorescence intensity of the negative control was defined as a reference value. As a positive control, physiological saline was added instead of the compound of Example 2-10.
Rats (350-450 g) were administered urethane (1.5 g/kg) intraperitoneally. 50 mg/kg of a fluorescent protein (FITC-BSA) was administered intravenously through a cannula introduced into the saphenous vein, and 1 μM […] was administered intravenously. SB-269970 and the compound of Example 2.10 were administered intraperitoneally. The cerebral lobes were separated and the meninges were drawn from each rat. The meninges were allowed to stand at 37° C. for 16 h in the presence of physiological saline at pH 11, followed by centrifugation. The supernatant was plated on plates. The fluorescence intensity was measured using a fluorescence leader (excitation wavelength 485 nm, […] wavelength 530 nm) and the meninges were weighed. The fluorescence intensity per mg of the meningeal proteins was calculated.

The target of the next experiment is 5-HT1E (Homo sapiens, UniProt P28566). Nature of the experiment: 5-HT1E receptor inhibition (Table 1). It counts as binding.
Chain of 5-HT1E (P28566 whole entry, species assumed): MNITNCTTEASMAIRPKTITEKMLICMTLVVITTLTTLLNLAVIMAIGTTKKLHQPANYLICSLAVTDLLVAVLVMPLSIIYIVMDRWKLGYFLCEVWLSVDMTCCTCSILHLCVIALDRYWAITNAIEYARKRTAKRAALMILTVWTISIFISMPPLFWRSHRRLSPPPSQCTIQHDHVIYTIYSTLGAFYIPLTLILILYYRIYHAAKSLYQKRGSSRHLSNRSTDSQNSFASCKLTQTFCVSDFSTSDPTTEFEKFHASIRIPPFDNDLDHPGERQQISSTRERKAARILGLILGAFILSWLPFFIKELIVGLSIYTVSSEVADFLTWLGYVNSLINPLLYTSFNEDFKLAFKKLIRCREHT
Another experiment concerns the target T3, 5-HT1A (Homo sapiens, UniProt P08908).
T3 sequence (P08908 1-422): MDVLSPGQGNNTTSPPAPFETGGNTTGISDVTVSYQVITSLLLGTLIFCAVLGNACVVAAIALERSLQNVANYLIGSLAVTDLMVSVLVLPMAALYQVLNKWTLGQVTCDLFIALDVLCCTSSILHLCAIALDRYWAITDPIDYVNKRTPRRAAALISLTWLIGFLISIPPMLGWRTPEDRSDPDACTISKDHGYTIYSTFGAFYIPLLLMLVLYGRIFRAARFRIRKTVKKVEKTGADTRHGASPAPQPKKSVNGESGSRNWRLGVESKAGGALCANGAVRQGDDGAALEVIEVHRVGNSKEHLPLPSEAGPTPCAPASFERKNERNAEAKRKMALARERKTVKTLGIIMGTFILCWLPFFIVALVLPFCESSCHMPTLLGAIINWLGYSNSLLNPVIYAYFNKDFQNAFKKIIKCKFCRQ
Nature of the experiment: 5-HT1A receptor inhibition (Table 3). Type of experiment: binding.

In a further experiment the target is 5-HT6 (Homo sapiens, UniProt P50406). Nature of the experiment: 5-HT6 receptor inhibition/binding (Tables 2-3).
Chain of 5-HT6 (P50406 whole entry, species assumed): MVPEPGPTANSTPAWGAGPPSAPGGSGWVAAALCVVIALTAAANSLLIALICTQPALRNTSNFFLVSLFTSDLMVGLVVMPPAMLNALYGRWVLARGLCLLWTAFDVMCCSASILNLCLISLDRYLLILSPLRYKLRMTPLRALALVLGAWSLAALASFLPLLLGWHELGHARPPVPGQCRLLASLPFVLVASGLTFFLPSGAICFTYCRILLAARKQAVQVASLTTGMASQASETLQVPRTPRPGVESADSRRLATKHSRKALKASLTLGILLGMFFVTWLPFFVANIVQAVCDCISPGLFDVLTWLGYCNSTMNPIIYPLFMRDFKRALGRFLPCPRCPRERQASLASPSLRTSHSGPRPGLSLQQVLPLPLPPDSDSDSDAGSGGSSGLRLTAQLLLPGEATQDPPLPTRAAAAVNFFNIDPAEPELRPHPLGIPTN

At 5-HT2C, `CC1CCN(CCCCCC(=O)n2c3ccccc3c3ccccc32)CC1` [Example 2.4, 1-(9H-carbazol-9-yl)-6-(4-methylpiperidin-1-yl)hexan-1-one] yielded a Ki of 878 nM. The inhibition at 10 µM is 78.5% on 5-HT2C, 94.2% in experiment [1] and -11.6% on 5-HT1E. The “protein leakage vs reference value” in the experiment with Rats is given as “suppressed to a level close to the reference value”.
Turning to `CC1CCN(CC[C@H]2CCCN2S(=O)(=O)c2cccc(O)c2)CC1` [SB-269970, reference compound], in the experiment on Rats (intraperitoneal, 10 mg/kg), the “amount of the proteins leaked (meningeal fluorescence intensity)” value is reported as “reduced the amount of the proteins leaked”. Also, the “amount of the proteins leaked (meningeal fluorescence intensity) vs reference value” in the experiment on Rats (intraperitoneal, 30 mg/kg) was “not lowered down to the reference value”.
With `Oc1ccccc1N1CCN(CCCCn2c3ccccc3c3ccccc32)CC1` [Example 2.55, 2-(4-(4-(9H-carbazol-9-yl)butyl)piperazin-1-yl)phenol], the inhibition at 10 µM was determined as 103% against 5-HT1A, 95.8% in experiment [1] and 77.8% at 5-HT6. For the same molecule, the Ki in experiment [1] stood at 55 nM. Further, the “protein leakage vs reference value” in the experiment on Rats is listed as “suppressed to a level close to the reference value”.
Consider `O=C(CCCCCN1CCC(c2ccccc2)CC1)n1c2ccccc2c2ccccc21` [Example 2.9, 1-(9H-carbazol-9-yl)-6-(4-phenylpiperidin-1-yl)hexan-1-one hydrochloride], for which the Ki on 5-HT2C came out at 758 nM; in experiment [1], 157 nM; at 5-HT6, 373 nM. The inhibition at 10 µM on 5-HT2C turned out to be 55.3%; in experiment [1] it was 99.8%; on 5-HT6, 92.2%. Further, in the experiment on Rats, the “protein leakage vs reference value” was “suppressed to a level close to the reference value”.
As to `O=C(CCCCCN1CCCCCC1)n1c2ccccc2c2ccccc21` [Example 2.7, 6-(Azepan-1-yl)-1-(9H-carbazol-9-yl)hexan-1-one hydrochloride], the inhibition constant Ki on 5-HT2C was 411 nM; in experiment [1] it was 616 nM. In addition, the inhibition at 10 µM worked out at 77.2% on 5-HT2C, 86% in experiment [1] and 1.8% at 5-HT1E.
Turning to `COc1ccccc1N1CCN(CCCCC(=O)n2c3ccccc3c3ccccc32)CC1` [Example 2.31, 1-(9H-carbazol-9-yl)-5-(4-(2-methoxyphenyl)piperazin-1-yl)pentan-1-one hydrochloride], the inhibition at 10 µM amounted to 103% on 5-HT1A, 62.6% on 5-HT2C, 99.6% in experiment [1] and 44.4% at 5-HT6. The inhibition constant (Ki) in experiment [1] amounted to 30 nM. The “protein leakage vs reference value” in the experiment on Rats was “suppressed to a level close to the reference value”.
Consider `O=C(CCCCCN1CCC(Cc2ccccc2)CC1)n1c2ccccc2c2ccccc21` [Example 2.10, 6-(4-Benzylpiperidin-1-yl)-1-(9H-carbazol-9-yl)hexan-1-one hydrochloride], for which the results for the Ki (on 5-HT2C; in experiment [1]; at 5-HT6) were 683 nM, 252 nM and 354 nM, respectively. For the same molecule, the inhibition at 10 µM on 5-HT2C came to 70.4%; in experiment [1], 103%; on 5-HT6 it was 91.9%. In the experiment on Rats (intraperitoneal, 3 mg/kg), the “amount of the proteins leaked (meningeal fluorescence intensity) vs reference value” is given as “effectively suppressed to a level close to the reference value”.
Regarding `O=C(CCCCN1CCCC1)n1c2ccccc2c2ccccc21` [Example 2.19, 1-(9H-carbazol-9-yl)-5-(pyrrolidin-1-yl)pentan-1-one hydrochloride], the inhibition at 10 µM at 5-HT2C was determined as 45%; in experiment [1], 57.4%; against 5-HT1E, 16.3%. Further, the inhibitory constant (Ki) in experiment [1] came to 2160 nM.
With `O=C(CCCCCN1CCCC1)n1c2ccccc2c2ccccc21` [Example 2.3, 1-(9H-carbazol-9-yl)-6-(pyrrolidin-1-yl)hexan-1-one hydrochloride], the figures for the Ki (on 5-HT2C; in experiment [1]) were 764 nM and 1050 nM, respectively. Further, the figures for the inhibition at 10 µM (on 5-HT2C; in experiment [1]; against 5-HT1E) were 76.7%, 74% and 13.9%, respectively.
As for `O=C(CCCCCN1CCN(c2ccccc2O)CC1)n1c2ccccc2c2ccccc21` [Example 2.15, 1-(9H-carbazol-9-yl)-6-(4-(2-hydroxyphenyl)piperazin-1-yl)hexan-1-one], the inhibition at 10 µM against 5-HT1A was 94.2%; at 5-HT2C it was 73.5%; in experiment [1] it was 100%; on 5-HT6, 85.3%. The Ki in experiment [1] turned out to be 38 nM. For the same molecule, the “protein leakage vs reference value” in the experiment with Rats is recorded as “suppressed to a level close to the reference value”.
For `O=C(CCCCCN1CCN(c2noc3ccccc23)CC1)n1c2ccccc2c2ccccc21` [Example 2.14, 6-(4-Benzo[d]isoxazol-3-yl)piperazin-1-yl)-1-(9H-carbazol-9-yl)hexan-1-one hydrochloride], the inhibition at 10 µM turned out to be 80.5% against 5-HT1A, 63.7% on 5-HT2C, 94.1% in experiment [1] and 81.3% at 5-HT6. Also, the Ki in experiment [1] worked out at 73 nM. The “protein leakage vs reference value” in the experiment with Rats was “suppressed to a level close to the reference value”.
For `CC1CCN(CCCCC(=O)n2c3ccccc3c3ccccc32)CC1` [Example 2.20, 1-(9H-carbazol-9-yl)-5-(4-methylpiperidin-1-yl)pentan-1-one hydrochloride], the values for the inhibition at 10 µM (at 5-HT2C; in experiment [1]; against 5-HT1E) were 44.4%, 80.2% and -19.3%, respectively. For the same molecule, the Ki in experiment [1] worked out at 592 nM.
With `CC1CC(C)CN(CCCCC(=O)n2c3ccccc3c3ccccc32)C1` (stereo not shown) [Example 2.22, 1-(9H-carbazol-9-yl)-5-(3,5-dimethylpiperidin-1-yl)pentan-1-one hydrochloride], the inhibitory constant (Ki) on 5-HT2C came out at 852 nM; in experiment [1], 1400 nM. The inhibition at 10 µM on 5-HT2C was 52.1%; in experiment [1], 67.6%; at 5-HT1E, -10.5%.
`CCCCN(C)CCCCCCn1c2ccccc2c2ccccc21` [Example 2.35, N-Butyl-6-(9H-carbazol-9-yl)-N-methylhexane-1-amine]: the inhibition at 10 µM was 59.4% at 5-HT2C, 70.7% in experiment [1] and 55.7% against 5-HT1E. Further, the inhibition constant (Ki) in experiment [1] is 511 nM.
Take `CCCCN(C)CCCCCC(=O)n1c2ccccc2c2ccccc21` [Example 2.1, 6-(Butyl(methyl)amino)-1-(9H-carbazol-9-yl)hexan-1-one hydrochloride]: the Ki worked out at 207 nM on 5-HT2C and 680 nM in experiment [1]. For the same molecule, the results for the inhibition at 10 µM (at 5-HT2C; in experiment [1]; against 5-HT1E) were 87.4%, 82.8% and 51.3%, respectively.
